Oligonucleotides are written 5' to 3', each unit as a sugar letter and its base; * is a phosphorothioate linkage, no mark a phosphodiester; rarer units and linkages stand in square brackets, end groups in braces. Plain capitals give the bases only. e = 2'-O-(2-methoxyethyl) (MOE); [5mC] = 5-methylcytosine; d = 2'-deoxy (DNA)
Assays:
[1] = test system: angiotensinogen mRNA; assay: Real-time PCR of angiotensinogen mRNA in liver and kidney of Sprague-Dawley rats; format: in vivo; details: relative to PBS control
Experimental: A control group of rats was injected with phosphate buffered saline (PBS) administered weekly for 4 weeks. The rats were sacrificed at the end of the study at week 4. Whole liver and kidney were harvested for RNA analysis and plasma was collected for protein analysis. RNA was extracted from liver tissue for real-time PCR analysis of angiotensinogen, using primer probe set RTS3550 (forward sequence [NT], designated herein as SEQ ID NO: 18; reverse sequence [NT], designated herein as SEQ ID NO: 19; probe sequence [NT], designated herein as SEQ ID NO: 20). The mRNA levels were normalized using the housekeeping gene, GAPDH. […] Results are presented as percent inhibition of angiotensinogen, relative to control.

[2] = test system: angiotensinogen protein; assay: ELISA of angiotensinogen plasma levels in Sprague-Dawley rats; format: in vivo; details: for Percent inhibition of angiotensinogen protein: plasma, relative to PBS control
Experimental: (§1) Groups of Sprague-Dawley rats were injected with 10 mg/kg/week, 20 mg/kg/week, 40 mg/kg/week, or 80 mg/kg/week of ISIS 552668 administered for 4 weeks. A control group of rats was injected with phosphate buffered saline (PBS) administered weekly for 4 weeks. The rats were sacrificed at the end of the study at week 4. Whole liver and kidney were harvested for RNA analysis and plasma was collected for protein analysis.
(§2) Angiotensinogen plasma levels were measured by ELISA (IBL International, Toronto, Canada). […] Results are presented as percent inhibition of angiotensinogen, relative to PBS control.

[3] = test system: Sprague-Dawley rats; assay: Blood pressure by tail-cuff volume-pressure method in Sprague-Dawley rats; format: in vivo; details: after 4 wks of treatments
Experimental: as §1
(§3) Systolic blood pressure (SBP), mean arterial pressure (MAP), and diastolic blood pressure (DBP) in the rats was measured by the tail-cuff volume-pressure method (Kent Scientific, Torrington, Conn.).

[4] = test system: female SHR rats; assay: Blood pressure by tail-cuff method in female SHR rats, Study 1; format: in vivo, Spontaneously hypertensive (SHR) rats; details: 2 weeks
Experimental: Groups of female SHR rats were injected with 50 mg/kg/week, 75 mg/kg/week, or 100 mg/kg/week of ISIS 552668 administered for 2 weeks. A control group of female SHR rats was injected with phosphate buffered saline (PBS) administered weekly for 2 weeks. Another control group constituted a group of wild-type rats injected with phosphate buffered saline (PBS) administered weekly for 2 weeks.
as §3

[5] = test system: female SHR rats; assay: Blood pressure by tail-cuff method in female SHR rats with subsequent Captopril, Study 2; format: in vivo, Spontaneously hypertensive (SHR) rats; details: then Captopril 50 mg/kg/day for 4 days
Experimental: A control group of female SHR rats was injected with phosphate buffered saline (PBS) administered weekly for 2 weeks. Another control group constituted a group of wild-type rats injected with phosphate buffered saline (PBS) administered weekly for 2 weeks. […] Systolic blood pressure (SBP), mean arterial pressure (MAP), and diastolic blood pressure (DBP) in the rats was measured by the tail-cuff volume-pressure method (Kent Scientific, Torrington, Conn.).

[6] = test system: female SHR rats; assay: Heart size after harvest in female SHR rats, Study 2; format: in vivo, Spontaneously hypertensive (SHR) rats; details: after 3 weeks, versus wild-type controls
Experimental: The size of the heart was measured immediately after harvest.

[7] = test system: SHR; assay: Mean arterial pressure by tail-cuff method in SHR, Study 3; format: in vivo, Spontaneously hypertensive (SHR) rats; details: ISIS 552668 and control oligonucleotide 100 mg/kg/week, Captopril 150 mg/kg/day
Experimental: A control group of SHR was injected with phosphate buffered saline (PBS) administered weekly for 3 weeks. Another control group of SHR was injected with 100 mg/kg/week of a control oligonucleotide (a nucleotide not targeted to angiotensinogen) administered for 3 weeks. […] Mean arterial pressure (MAP) in the rats was measured by the tail-cuff volume-pressure method (Kent Scientific, Torrington, Conn.).

[8] = test system: angiotensinogen mRNA; assay: Real-time PCR of angiotensinogen mRNA in SHR tissues, Study 3; format: in vivo, Spontaneously hypertensive (SHR) rats; details: 3 weeks, oligonucleotides 100 mg/kg/week, Captopril 150 mg/kg/day
Experimental: (§4) A group of SHR was injected with 100 mg/kg/week of ISIS 552668 administered for 3 weeks. A control group of SHR was injected with phosphate buffered saline (PBS) administered weekly for 3 weeks. Another control group of SHR was injected with 100 mg/kg/week of a control oligonucleotide (a nucleotide not targeted to angiotensinogen) administered for 3 weeks.
[…] The mRNA levels were normalized using the housekeeping gene, GAPDH. […] Results are presented as percent inhibition of angiotensinogen, relative to control.

[9] = test system: renin mRNA; assay: Real-time PCR of kidney renin mRNA in SHR, Study 3; format: in vivo, Spontaneously hypertensive (SHR) rats; details: 3 weeks, oligonucleotides 100 mg/kg/week, Captopril 150 mg/kg/day, PBS = 100
Experimental: A control group of SHR was injected with phosphate buffered saline (PBS) administered weekly for 3 weeks. Another control group of SHR was injected with 100 mg/kg/week of a control oligonucleotide (a nucleotide not targeted to angiotensinogen) administered for 3 weeks. […] RNA was extracted from kidney tissue for real-time PCR analysis of renin, using primer probe set rRenin2 (forward sequence [NT], designated herein as SEQ ID NO: 21; reverse sequence [NT], designated herein as SEQ ID NO: 22; probe sequence [NT], designated herein as SEQ ID NO: 23). The mRNA levels were normalized using the housekeeping gene, GAPDH. […] Increase in renin in the body is deleterious to the overall health of the animal (Nguyen and Muller, The Biology of the (Pro)Renin Receptor, J Am Soc Nephrol, 2010 January, 21(1):18-23). […] Results are presented as percent expression of renin, relative to control.

[10] = test system: angiotensinogen protein; assay: ELISA of angiotensinogen plasma levels in SHR, Study 3; format: in vivo, Spontaneously hypertensive (SHR) rats; details: 3 weeks, oligonucleotides 100 mg/kg/week, Captopril 150 mg/kg/day
Experimental: as §4, §2

[11] = test system: angiotensinogen; assay: Immunohistochemical analysis of liver, cardiac and kidney tissues in SHR, Study 3; format: in vivo, Spontaneously hypertensive (SHR) rats; details: 100 mg/kg/week for 3 weeks, compared to the PBS control
Experimental: as §4

[12] = test system: SHR; assay: Systolic blood pressure by tail-cuff method in SHR before and after ISIS 552668 added to chronic Captopril, Study 4; format: in vivo, Spontaneously hypertensive (SHR) rats; details: no Captopril
[13] = test system: Dahl/SS rats; assay: Blood pressure by tail-cuff method in Dahl/SS rats; format: in vivo, Dahl/Salt Sensititive (Dahl/SS) rats; details: female Dahl/SS rats, 8% NaCl diet; 3 weeks; ISIS oligonucleotides 40 mg/kg/week, Captopril 150 mg/kg daily
Experimental: The rats were fed a diet with 8% NaCl. A group of female Dahl/SS rats was injected with 40 mg/kg/week of ISIS 552668 administered for 3 weeks. A group of female Dahl/SS rats was injected with 40 mg/kg/week of control oligonucleotides ISIS 141923 administered for 3 weeks. […] A control group of female Dahl/SS rats was injected with phosphate buffered saline (PBS) administered weekly for 3 weeks. Another control group constituted a group of Dahl/Salt Resistant (Dahl/SR) rats injected with phosphate buffered saline (PBS) administered weekly for 3 weeks.
Systolic blood pressure (SBP), mean arterial pressure (MAP), and diastolic blood pressure (DBP) in the rats was measured by the tail-cuff volume-pressure method (Kent Scientific). The results are presented in Table 12, expressed as the percent decrease in blood pressure compared to the control SHR group.

## ISIS 552668: 5-10-5 MOE gapmer CACTGATTTTTGCCCAGGAT (SEQ ID NO: 17), phosphorothioate linkages, 5-methylcytosines, targeted to rat angiotensinogen (antisense e[5mC]*eA*e[5mC]*eT*eG*dA*dT*dT*dT*dT*dT*dG*d[5mC]*d[5mC]*d[5mC]*eA*eG*eG*eA*eT)
[1]; 10 mg/kg/wk for 4 weeks
  Percent inhibition of angiotensinogen mRNA, Kidney: 41%
  Percent inhibition of angiotensinogen mRNA, Liver: 19%
[1]; 20 mg/kg/wk for 4 weeks
  Percent inhibition of angiotensinogen mRNA, Kidney: 68%
  Percent inhibition of angiotensinogen mRNA, Liver: 59%
[1]; 40 mg/kg/wk for 4 weeks
  Percent inhibition of angiotensinogen mRNA, Kidney: 75%
  Percent inhibition of angiotensinogen mRNA, Liver: 86%
[1]; 80 mg/kg/wk for 4 weeks
  Percent inhibition of angiotensinogen mRNA, Kidney: 77%
  Percent inhibition of angiotensinogen mRNA, Liver: 96%
[2]; 10 mg/kg/wk for 4 weeks
  Percent inhibition of angiotensinogen protein: 25%
[2]; 20 mg/kg/wk for 4 weeks
  Percent inhibition of angiotensinogen protein: 38%
[2]; 40 mg/kg/wk for 4 weeks
  Percent inhibition of angiotensinogen protein: 83%
[2]; 80 mg/kg/wk for 4 weeks
  Percent inhibition of angiotensinogen protein: 93%
[2]; weekly dosing for 4 weeks
  ED50 for plasma protein reductions: 23.6 mg/kg
[3]; 10 mg/kg/wk
  DBP: 107 mm Hg
  MAP: 117 mm Hg
  SBP: 138 mm Hg
[3]; 40 mg/kg/wk
  DBP: 79 mm Hg
  MAP: 92 mm Hg
  SBP: 118 mm Hg
[3]; 80 mg/kg/wk
  DBP: 68 mm Hg
  MAP: 82 mm Hg
  SBP: 109 mm Hg
[4]; 50 mg/kg/wk
  DBP: 100 mm Hg
  MAP: 114 mm Hg
  SBP: 144 mm Hg
[4]; 75 mg/kg/wk
  DBP: 98 mm Hg
  MAP: 111 mm Hg
  SBP: 140 mm Hg
[4]; 100 mg/kg/wk
  DBP: 81 mm Hg
  MAP: 95 mm Hg
  SBP: 122 mm Hg
[5]; ASO 50 mg/kg/wk for 2 weeks
  DBP: 82 mm Hg
  MAP: 97 mm Hg
  SBP: 127 mm Hg
[5]; ASO 75 mg/kg/wk for 2 weeks
  DBP: 74 mm Hg
  MAP: 87 mm Hg
  SBP: 113 mm Hg
[5]; ASO 100 mg/kg/wk for 2 weeks
  DBP: 81 mm Hg
  MAP: 94 mm Hg
  SBP: 120 mm Hg
[6]
  Effect on heart size of the SHR rats: reversed the increase in heart size of the SHR rats to that observed in the wild-type controls
[7]
  MAP, Week 1: 117 mm Hg
  MAP, Week 2: 104 mm Hg
  MAP, Week 3: 109 mm Hg
[8]
  Percent inhibition of angiotensinogen mRNA compared to the PBS control, Heart: 89%
  Percent inhibition of angiotensinogen mRNA compared to the PBS control, Kidney: 76%
  Percent inhibition of angiotensinogen mRNA compared to the PBS control, Liver: 87%
[9]
  Percent increase of kidney renin mRNA: 379%
[10]
  Percent inhibition of angiotensinogen protein in the plasma compared to the PBS control: 91%
[11]
  Angiotensinogen in liver, cardiac and kidney tissues by immunohistochemical analysis: significant reduction of angiotensinogen
[12]; ISIS 552668 50 mg/kg/week
  Blood pressure (SBP), Before ISIS 552668 dosing: 146
[12]; ISIS 552668 100 mg/kg/week
  Blood pressure (SBP), Before ISIS 552668 dosing: 131
[13]
  DBP: 94 mm Hg
  MAP: 111 mm Hg
  SBP: 146 mm Hg

Reference: patent US20150297629A1, “MODULATION OF RENIN-ANGIOTENSIN SYSTEM (RAS) RELATED DISEASES BY ANGIOTENSINOGEN” (Isis Pharmaceuticals, Inc,, priority 2012, published 2015)
